Experimental data taken from patent US20180078498A1, “Microneedle Patch for Delivering an Active Ingredient to Skin” (LEO Pharma A/S, priority 2015, published 2018).

Test: Testing of biodegradable polymers as microneedle matrix (physical stability, release, chemical stability of active ingredient)
Format: physicochemical
Experimental: In the course of research leading to the present invention, a large number of different biodegradable polymers were tested for their suitability to form a matrix from which the microneedles could be made.

C=C1/C(=C\C=C2/CCC[C@]3(C)[C@@H]([C@H](C)/C=C/[C@@H](O)C4CC4)CC[C@@H]23)C[C@@H](O)C[C@@H]1O [calcipotriol]
chemical stability of calcipotriol (ester-terminated polylactide, polyglycolide or polylactide co-glycolide as the biodegradable polymer): chemically stable | chemical stability of calcipotriol (in a matrix of polylactic acid, polyglycolic acid or polylactic co-glycolic acid): not chemically stable
